Several values for one entry are separate records, joined by “and”; a condition that tells them apart may be missing. Equal entries are not always repeated. Where two headings read alike, the source gives them in different places.
Legend:
[1] = Aerodynamic particle size distribution of pMDI solution formulations by Andersen Cascade Impactor (MMAD, GSD, fine particle dose); assay type: physicochemical; conditions: for FPD3 < 4.7 μm*: ethanol 15%, normalized for 250 nominal dose
Protocol: The aerodynamic particle size distribution of each formulation was characterized using a Multistage Cascade Impactor according to the procedure described in the European Pharmacopoeia 2nd edition, 1995, part V.5.9.1. pages 15-17. In this specific case an Andersen Cascade Impactor (ACI) was used. Results represented were obtained from ten cumulative actuations of a formulation. Deposition of the drug on each ACI plate was determined by high pressure liquid chromatography. The mass median aerodynamic diameter (MMAD) and geometric standard deviation (GSD) were calculated from plots of the cumulative percentage undersize of drug collected on each ACI plate (probit scale), against the upper cut off diameter for each respective ACI plate (log10 scale). The fine particle dose of each formulation was determined from the mass of drug collected on Stages 3 through to Filter (<4.7 μm) divided by the number of actuations per experiment.

[2] = BDP as a solution in HFA 134a (formulations of EP 0553298), reported in literature; cited from earlier work
[3] = BDP 50 μg/shot, ethanol 13%, glycerol 1.3%, HFA 134a, chamber volume 25 μl, actuator orifice 0.25 mm
[4] = BDP 50 μg/shot, ethanol 13%, glycerol 1.3%, HFA 134a, chamber volume 25 μl, actuator orifice 0.30 mm
[5] = BDP 50 μg/shot, ethanol 13%, glycerol 1.3%, HFA 134a, chamber volume 50 μl, actuator orifice 0.30 mm
[6] = BDP 50 μg/shot, ethanol 13%, glycerol 1.3%, HFA 134a, chamber volume 100 μl, actuator orifice 0.30 mm
[7] = BDP 50 μg/shot, ethanol 13%, glycerol 1.3%, HFA 227, chamber volume 25 μl, actuator orifice 0.30 mm
[8] = BDP 50 μg/shot, ethanol 13%, glycerol 1.3%, HFA 227, chamber volume 50 μl, actuator orifice 0.30 mm
[9] = BDP 50 μg/shot, ethanol 13%, glycerol 1.3%, HFA 227, chamber volume 100 μl, actuator orifice 0.30 mm
[10] = BDP 250 μg/shot, ethanol 15% (w/w), glycerol 1.3% (w/w), actuator 0.30 mm, HFA 227/HFA 134a 0:100
[11] = BDP 250 μg/shot, ethanol 15% (w/w), glycerol 1.3% (w/w), actuator 0.30 mm, HFA 227/HFA 134a 25:75
[12] = BDP 250 μg/shot, ethanol 15% (w/w), glycerol 1.3% (w/w), actuator 0.30 mm, HFA 227/HFA 134a 50:50
[13] = BDP 250 μg/shot, ethanol 15% (w/w), glycerol 1.3% (w/w), actuator 0.30 mm, HFA 227/HFA 134a 75:25
[14] = BDP 250 μg/shot, ethanol 15% (w/w), glycerol 1.3% (w/w), actuator 0.30 mm, HFA 227/HFA 134a 100:0

CCC(=O)OCC(=O)[C@@]1(OC(=O)CC)[C@@H](C)C[C@H]2[C@@H]3CCC4=CC(=O)C=C[C@]4(C)[C@@]3(Cl)[C@@H](O)C[C@@]21C [BDP, beclomethasone 17,21 dipropionate]
FPD < 4.7 μm [1, 3]: 26.0 µg | GSD [1, 3]: 1.9 | MMAD [1, 3]: 2.8 μm | Metered Dose [1, 3]: 55 µg | FPD < 4.7 μm [1, 4]: 19.2 µg | GSD [1, 4]: 2.0 | MMAD [1, 4]: 2.6 μm | Metered Dose [1, 4]: 57 µg | FPD < 4.7 μm [1, 5]: 13.9 µg | GSD [1, 5]: 2.1 | MMAD [1, 5]: 2.8 μm | Metered Dose [1, 5]: 49 µg | FPD < 4.7 μm [1, 6]: 11.7 µg | GSD [1, 6]: 2.2 | MMAD [1, 6]: 2.7 μm | Metered Dose [1, 6]: 51 µg | FPD < 4.7 μm [1, 7]: 16.4 µg | GSD [1, 7]: 2.1 | MMAD [1, 7]: 3.6 μm | Metered Dose [1, 7]: 58 µg | FPD < 4.7 μm [1, 8]: 13.1 µg | GSD [1, 8]: 2.2 | MMAD [1, 8]: 3.5 μm | Metered Dose [1, 8]: 51 µg | FPD < 4.7 μm [1, 9]: 12.6 µg | GSD [1, 9]: 2.2 | MMAD [1, 9]: 3.5 μm | Metered Dose [1, 9]: 49 µg | FPD [1, 10]: 27, 27% | MMAD [1, 10]: 2.8, 2.8 μm | FPD [1, 11]: 27% and 28% | MMAD [1, 11]: 3.3 μm and 3.2 μm | FPD [1, 12]: 25, 25% | MMAD [1, 12]: 3.4 μm and 3.7 μm | FPD [1, 13]: 25, 25% | MMAD [1, 13]: 3.7, 3.7 μm | FPD [1, 14]: 20% and 24% | MMAD [1, 14]: 4.2 μm and 3.9 μm and 3.8 μm | FPD3 < 4.7 μm* ([1]; BDP 250 μg/shot, glycerol 1.3%, actuator 0.30 mm, HFA 227/HFA 134a 0:100): 58 µg and 59 µg | FPD3 < 4.7 μm* ([1]; BDP 250 μg/shot, glycerol 1.3%, actuator 0.30 mm, HFA 227/HFA 134a 25:75): 60 µg and 62 µg | FPD3 < 4.7 μm* ([1]; BDP 250 μg/shot, glycerol 1.3%, actuator 0.30 mm, HFA 227/HFA 134a 50:50): 56, 56 μg | FPD3 < 4.7 μm* ([1]; BDP 250 μg/shot, glycerol 1.3%, actuator 0.30 mm, HFA 227/HFA 134a 75:25): 56 µg and 57 µg | FPD3 < 4.7 μm* ([1]; BDP 250 μg/shot, glycerol 1.3%, actuator 0.30 mm, HFA 227/HFA 134a 100:0): 47 µg and 45 µg and 50 µg | MMAD [2]: 1.1 μm

Source: patent US20040184993A1, “Pharmaceutical aerosol composition containing HFA 227 and HFA 134a” (Chiesi Farmaceutici S.p.A., priority 1998, published 2004)
